Assay results published in patent publication US12612412B2, “Antiviral heterocyclic compounds” (Enanta Pharmaceuticals, Inc., priority 2021, dated 2026).
Where two headings read alike, the source gives them in different places.

Tests used:
[1] = test system: recombinant HMPV CAN97-83 containing eGFP (MPV-GFP1); experiment: HMPV antiviral assay Method-A (MPV-GFP1 eGFP fluorescence in Vero E6 cells); assay type: cell-based, Human metapneumovirus (HMPV); conditions: human metapneumovirus, Vero C1008, 120 h, read-out: HMPV EC50
Procedure: HMPV antiviral activity was evaluated using a recombinant version of HMPV CAN97-83 engineered to contain the coding sequence for enhanced green fluorescence protein (eGFP) in the 3′ end of the virus genome (MPV-GFP1, ViraTree). Vero E6 cells ([…]) were seeded at a density of 12,000 cells/100 μL/well into 96-well cell plates one day prior to the assay. On the day of screening, the cell culture medium was aspirated from the wells and cells were washed twice with serum-free Eagle's Modified Essential Medium (EMEM, ATCC #) containing 1% penicillin-streptomycin (Invitrogen) (SF-EMEM). Cell washes were performed by dispensing 100 μL SF-EMEM per well and immediately aspirating the wash medium from the well. Following the second wash step, serum-free OptiMEM (Invitrogen, Cat No.) (SF-OptiMEM) containing 0.5 μg/mL TPCK-Trypsin (VENDOR) and 1% penicillin-streptomycin was added to the cells at 50 μL/well. Compounds were added into the 96-well plates using a JANUS automated liquid handling system (VENDOR). Compounds were initially diluted 1:50 into an intermediate 96-well plate containing SF-OptiMEM prior to transfer to the assay plate (25 μL/well). Each of the test compounds were tested in duplicate wells at final concentrations starting from 8 μM or 2 μM using ½ stepwise dilutions for a total of 8 points. Virus infection was performed by preparing a working stock of MPV-GFP1 at a multiplicity of infection (MOI) equal to 0.05/25 μL and aliquoting 25 μL of virus inoculum to the compound and positive control wells. SF-OptiMEM was added (25 μL/well) to the appropriate wells to serve as a virus-free negative control for the assay. The final DMSO concentration of all wells is 0.5%. Plates were incubated at 32° C., 5% CO2 for 5 days.
After 5 days incubation, eGFP fluorescence intensity was measured at (X) […] wavelength using a Spectramax i3× plate reader (VENDOR). Percent viral inhibition was calculated using the following equation: y=[…]
Where XQ is the fluorescence intensity measured in a well containing recombinant MPV-GFP1-infected, compound-treated cells and XP is the average fluorescence intensity measured in the wells containing untreated cells infected with recombinant virus. EC50 values were then calculated by non-linear regression using a four parameter curve logistic equation. The curve fit model employed was XLFit Dose Response One Site Model 200: y=(A+(B/(1+((x/C)^D))))
Where A is the minimum y value, B is the maximum y value, C is the log EC50 value, and D is the slope factor. […] EC50 ranges are as follows: A<0.5 μM; B>0.5 μM.

[2] = test system: genotype A, "Long" strain RSV; experiment: RSV-A assay (CPE protection in Hep-2 cells, ATPlite readout); assay type: cell-based, Human respiratory syncytial virus (HRSV); conditions: human respiratory syncytial virus, MOI 0.1, CPE protection
Outline: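 Hep-2 cells (8,000/well) were treated with 2-fold serial compound dilutions in duplicate and infected with RSV at MOI 0.1. After 5 days, protection from cytopathic effect was measured as cell viability by ATPlite luminescence, and EC50 values were derived.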

[3] = test system: HMPV clinical isolate TN/1501/A1; experiment: HMPV antiviral assay Method-B (clinical isolate TN/1501/A1 in LLC-MK2 cells, ATP-Lite readout); assay type: cell-based, Human metapneumovirus (HMPV); conditions: human metapneumovirus, LLC-MK2, 144 h, hMPV WT1501 (clinical isolate TN/1501/A1), 6 days
Outline: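 EC50 derived by four-parameter logistic fit of percent cell health, measured by ATP-Lite luminescence and normalised to virus-only and uninfected-cell controls. Compounds run in duplicate from 10 μM top, 3-fold, 10 points. Infection: LLC-MK2 cells, MOI 0.014, 2 μg/mL final TPCK-trypsin, serum-free, 6 days at 37° C.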

[4] = genotype A “Long” strain RSV, read-out: Human RSV-A (“Long”)
[5] = RSV-A Long strain, read-out: Human RSV-A (“Long”) EC50

SMILES | EC50 [2, 5] [nM] | EC50 [3] [nM] | EC50 [1] [nM] | EC50 [2, 4] [nM]
COC(=O)Nc1cc(C(=O)NC[C@](O)(c2cc3c(c(-c4ccc(F)cc4)n2)OC[C@]3(C)C(N)=O)C(F)(F)F)cc2cc(C)cnc12 [Example 210] |  |  | < 500 | < 200
COc1cc(C(=O)NC[C@](O)(c2cc3c(c(-c4ccc(F)cc4)n2)OC[C@]3(C)C(N)=O)C(F)(F)F)cc2cn(C(F)F)nc12 [Example 40] |  |  | < 500 | < 200
C[C@]1(C(N)=O)COc2c1cc([C@@](O)(CNC(=O)c1cc(OC3CC3)c3nn(C4CC4)cc3c1)C(F)(F)F)nc2-c1ccc(F)c(Cl)c1 [Example 30] |  |  | < 500 | < 200
Cc1cc2cc(C(=O)NC[C@](O)(c3cc4c(c(-c5ccc(F)c(Cl)c5)n3)OC[C@]4(C)C(N)=O)C(F)(F)F)cc(OC(F)(F)F)c2nc1C [Example 184] |  |  | > 500 | < 200
CCc1nc2c(OC)cc(C(=O)NC[C@](O)(c3cc4c(c(-c5ccc(F)cc5)n3)OC[C@]4(C)C(N)=O)C(F)(F)F)cc2s1 [Example 16] |  |  | < 500 | < 200
C[C@]1(C(N)=O)COc2c1cc([C@@](O)(CNC(=O)c1cc(F)c3nc(N)sc3c1)C(F)(F)F)nc2-c1ccc(Cl)c(Cl)c1 [Example 306] |  |  | < 500 | < 200
CC[C@]1(C(N)=O)COc2c1cc([C@@](O)(CNC(=O)c1cc(OC)c3nn(C(F)F)cc3c1)C(F)(F)F)nc2-c1ccc(F)cc1 [Example 234] |  |  | < 500 | < 200
C[C@]1(C(N)=O)COc2c1cc([C@@](O)(CNC(=O)c1cc(Cl)c3nc(N)sc3c1)C(F)(F)F)nc2-c1ccc(F)c(Cl)c1 [Example 13] |  |  | < 500 | < 200
COc1cc(C(=O)NC[C@](O)(c2cc3c(c(-c4ccc(F)cc4)n2)OC[C@]3(C)C(N)=O)C(F)(F)F)cc2cc(C3CCC3)nn12 [Example 322] |  |  | > 500 | < 200
COc1cc(C(=O)NC[C@](O)(c2cc3c(c(-c4ccc(F)c(Cl)c4)n2)OC[C@]3(C)C(N)=O)C(F)(F)F)cc2sc(C3CC3)nc12 [Example 19] |  |  | < 500 | < 200
CCc1nc2c(OC)cc(C(=O)NC[C@](O)(c3cc4c(c(-c5ccc(F)c(Cl)c5)n3)OC[C@]4(C)C(N)=O)C(F)(F)F)cc2s1 [Example 20] |  |  | < 500 | < 200
C[C@]1(C(N)=O)COc2c1cc([C@@](O)(CNC(=O)c1cc(OC3CC3)n3nc(C4CC4)cc3c1)C(F)(F)F)nc2-c1ccc(F)cc1 [Example 321] |  |  | < 500 | < 200
C[C@]1(C(N)=O)COc2c1cc([C@@](O)(CNC(=O)c1cc(F)c3nn(C4CC4)cc3c1)C(F)(F)F)nc2-c1ccc(F)cc1 [Example 25] |  |  | < 500 | < 200
C[C@]1(C(N)=O)COc2c1cc([C@@](O)(CNC(=O)c1cc(F)c3nc(C4CC4)cn3c1)C(F)(F)F)nc2-c1ccc(F)cc1 [Example 57] |  |  | > 500 | < 200
C[C@]1(C(N)=O)COc2c1cc([C@@](O)(CNC(=O)c1cc(Cl)c3ncc(C(F)(F)F)cc3c1)C(F)(F)F)nc2-c1ccc(F)cc1 [Example 73] |  |  | < 500 | < 200
COc1cc(C(=O)NC[C@](O)(c2cc3c(c(-c4ccc(F)c(F)c4F)n2)OC[C@@]3(C(N)=O)C(F)F)C(F)(F)F)cc2cc(Cl)c(C)nc12 [Example 1041] | < 200 | < 500 |  | 
COc1cc(C(=O)NC[C@@](O)(c2cc3c(c(-c4ccc5c(c4)OC(F)(F)C(F)(F)O5)n2)OC[C@]3(C)C(N)=O)C(F)(F)F)cc2cn(C3CC3)nc12 [Example 954] | < 200 | > 500 |  | 
COc1cc(C(=O)NC[C@](O)(c2cc3c(c(-c4cccc(F)c4Cl)n2)OC[C@]3(C)C(N)=O)C2CC2)cc2cc(Br)c(C)nc12 [Example 1126] | < 200 | < 500 |  | 
Cc1cnc2c(Cl)cc(C(=O)NC[C@](O)(c3cc4c(c(-c5ccc(F)c(F)c5Cl)n3)OC[C@]4(C)C(N)=O)C3CC3)cc2c1 [Example 1187] | < 200 | < 500 |  | 
C[C@]1(C(N)=O)COc2c1cc([C@@](O)(CNC(=O)c1cc(Cl)c3nn(C4CC4)cc3c1)C1CC1)nc2-c1ccc(F)c(Cl)c1F [Example 559] |  | < 500 |  | < 200
COc1cc(C(=O)NC[C@](O)(c2cc3c(c(-c4cc(F)c(F)c(Cl)c4)n2)OC[C@]3(C)C(N)=O)C(F)(F)F)cc2cc(Cl)c(C)nc12 [Example 784] |  | < 500 |  | < 200

More lines, main results first:

EC50 [2, 5] [nM] | EC50 [3] [nM] | SMILES | EC50 [1] [nM] | EC50 [2, 4] [nM]
 | < 500 | C[C@]1(C(N)=O)COc2c1cc([C@@](O)(CNC(=O)c1cc(Cl)c3nn(C4CC4)cc3c1)C1(F)CC1)nc2-c1ccc(F)cc1 [Example 755] |  | < 200
 | > 500 | COc1ccc(C(=O)NC[C@](O)(c2cc3c(c(-c4ccc(F)cc4)n2)OC[C@]3(C)C(N)=O)C(F)(F)F)n2cc(C)nc12 [Example 694] |  | < 200
< 200 | > 500 | COc1cc(C(=O)NC[C@@](O)(c2cc3c(c(-c4cc5c(cc4Cl)OC(F)(F)O5)n2)OC[C@]3(C)C(N)=O)C(F)(F)F)cc2cn(C3CC3)nc12 [Example 1226] |  | 
< 200 | < 500 | COc1cc(C(=O)NC[C@](O)(c2nc(-c3ccc(F)cc3)c3c(c2F)[C@@](C)(C(N)=O)CO3)C(F)(F)F)cc2cc(Cl)c(C)nc12 [Example 855] |  | 
< 200 | > 500 | COc1cc(C(=O)NC[C@](O)(c2cc3c(c(C4=CCC(F)(F)CC4)n2)OC[C@]3(C)C(N)=O)C(F)(F)F)cc2cn(C3CC3)nc12 [Example 1228] |  | 
< 200 | > 500 | COc1cc(C(=O)NC[C@](O)(c2cc3c(c(-c4cccc(OC(F)F)c4)n2)OC[C@]3(C)C(N)=O)C(F)(F)F)cc2cn(C3CC3)nc12 [Example 918] |  | 
< 200 | < 500 | COc1cc(C(=O)NC[C@](O)(c2cc3c(c(-c4c(F)cccc4Cl)n2)OC[C@]3(C)C(N)=O)C(F)(F)F)cc2cn(C3CC3)nc12 [Example 989] |  | 
 | < 500 | C[C@]1(C(N)=O)COc2c1cc([C@@](O)(CNC(=O)c1cc(Cl)c3nn(C4CC4)cc3c1)C1CC1)nc2-c1ccc(F)c(Br)c1F [Example 800] |  | < 200
< 200 | < 500 | COc1cc(C(=O)NC[C@](O)(c2cc3c(c(-c4ccc(F)c(Cl)c4)n2)OC[C@@]3(C(N)=O)C(F)F)C2CC2)cc2cn(C3CC3)nc12 [Example 1025] |  | 
> 200 | > 500 | COc1cc(C(=O)NC[C@](O)(c2cc3c(c(-c4ccc5[nH]ccc5c4)n2)OC[C@]3(C)C(N)=O)C(F)(F)F)cc2cn(C3CC3)nc12 [Example 969] |  | 
> 200 | > 500 | COc1cc(C(=O)NC[C@](O)(c2cc3c(c(-c4ccc5cn(C(F)F)nc5c4)n2)OC[C@]3(C)C(N)=O)C(F)(F)F)cc2cn(C3CC3)nc12 [Example 941] |  | 
< 200 | > 500 | COc1cc(C(=O)NC[C@](O)(c2cc3c(c(-c4ccc5c(c4)OC(F)(F)C(F)(F)O5)n2)OC[C@]3(C)C(N)=O)C(F)(F)F)cc2cn(C3CC3)nc12 [Example 1218] |  | 
< 200 | > 500 | COc1cc(C(=O)NC[C@](O)(c2cc3c(c(-c4cnc(C(F)(F)F)s4)n2)OC[C@]3(C)C(N)=O)C(F)(F)F)cc2cn(C3CC3)nc12 [Example 950] |  | 
< 200 | > 500 | COc1cc(C(=O)NC[C@](O)(c2cc3c(c(-c4ccc5c(ccn5C(F)F)c4)n2)OC[C@]3(C)C(N)=O)C(F)(F)F)cc2cn(C3CC3)nc12 [Example 939] |  | 
